Results: patent US20060030616A1, “Anhydride modified cantharidin analogues useful in the treatment of cancer” (priority 1998, published 2006)
Where two headings read alike, the source gives them in different places.

Experiments:
L1210 cells = test: MTT cytotoxicity assay, 72 h; assay type: cell-based, murine; details: L1210, p53 wt; read-out: IC50 (mean ± SE) after 72 h continuous exposure
Procedure: (§1) Cells in a subconfluent phase are transferred to 96-well microtitre plates. L1210 cells are plated at a density of 1000 cells/well in 100 μl medium, while all other cell lines are plated at a density of 2000-25000 cells/well. The cells are left for 24 h prior to treatment to ensure exponential growth has been achieved, 24 h after plating (day 0), 100 μl of phosphatase inhibitor is added to each well, control wells received 100 μl of medium only. Drug exposure time is 72 h (day 3). The effect of phosphatase inhibition is tested in triplicate over a concentration range of […]−1×10^−8 M. Growth inhibitory effects are evaluated using the MTT assay and absorbance read at […]. The IC50 is the drug concentration at which cell growth is 50% inhibited based on the difference of optical density on day 0 and day 3 of drug exposure. Cytotoxicity is evaluated using a spectrophotometric assay which determines the percentage of cell growth following exposure of the cells to various concentrations of the phosphatase inhibitors for a period of 72 hours. The subsequent dose response curve is used to calculate IC50 values (the drug concentration at which cell growth is 50% inhibited).
(§2) Anti-cancer screening of the protein phosphatase inhibitors is assessed using the MTT assay. This assay determines cell viability by the ability of mitochondrial dehydrogenase to produce formazan crystals from 3-(4,5-dimethylthiazol-2-yl)-2,5-diphenyltetrazolium bromide. The viable cell number/well is directly proportional to the production of formazan, which following solubilization, can be measured spectrophotometrically (540 nm). This technique is also used by the National Cancer Institute to screen for new anticancer agents.
(§3) As described herein a number of cantharidin analogues have been synthesised and tested for their anticancer activity in nine cancer cell lines using the MTT assay after 72 h exposure. These new analogues are shown in FIG. 2 and have been designated MK-1 through to MK-9.

nine cancer cell lines = test: MTT cytotoxicity assay, 72 h, ranges over cell line panel; assay type: cell-based
Procedure: as §1, §2, §3

HCT116 cells = test: Checkpoint abrogation after 6 Gy radiation, flow cytometry; assay type: cell-based, human; details: 12 h after drug; for Cell Cycle Distribution, G1 / Cell Cycle Distribution, G2 + M / Cell Cycle Distribution, S / Cell Cycle Distribution, sub G / Checkpoint remark: 18 h after 6Gy; for Checkpoint abrogation: HCT116, 6 Gy
Procedure: (§4) The cells are fixed in 70% ethanol and stored at −20° C. until analysis is performed (1-2 weeks). After fixing, the cells are pelleted and incubated in PBS containing propidium iodide ([…]) and RNase A (200 mg/ml) for at least 30 min at room temperature. The samples (2×10^4 events) are analysed using a Becton Dickson FACScan, fluorescence is collected in fluorescence detector 2 (FL2), filter 575/30 nm band pass. Cell cycle distribution is assessed using Cell Quest software (Becton Dickson).
(§5) The ability of the protein phosphatase inhibitors to abrogate the G1 or G2 checkpoint of the cell cycle may be determined by cell cycle analysis using flow cytometry. Briefly, asynchronous cell cultures are harvested 18 h after 6 Gy irradiation and/or 12 h incubation with the protein phosphatase inhibitor. Depending upon the p53 status of the cell line, radiation treatment alone will induce arrest in either G1 and/or G2 phase of the cell cycle.
(§6) If the protein phosphatase inhibitor abrogates the G2 checkpoint then the cells will not arrest in the G2 phase of the cell cycle and the cells will continue through the cell cycle and accumulate in the G1 phase of the cell cycle only. Similarily if the protein phosphatase inhibitors abrogates the G1 checkpoint then the cells will not arrest in the G1 phase of the cell cycle and accumulate in the G2 phase of the cell cycle only. Cell cycle analysis using propidium iodide labelling of DNA has been used extensively in our laboratory to assess the effect of specific anticancer agents that induce S-phase cell cycle arrest and apoptotic cell death (Sakoff, Ackland and Stewart, 1998). Experiments were performed on a Becton Dickinson FACScan and using Cell Quest software.
(§7) The cells were treated with 6 Gy of radiation and then treated with cantharidin 6 h later. The ability to abrogate cell cycle arrest was assessed is 12 h after the addition of the drugs.

HL60 cells = test: as above; assay type: cell-based, human; details: 12 h after drug; for Cell Cycle Distribution, G1 / Cell Cycle Distribution, G2 + M / Cell Cycle Distribution, S / Cell Cycle Distribution, sub G / Checkpoint remark: 18 h after 6Gy; for Checkpoint abrogation: HL60, 6 Gy
Procedure: as §4, §5, §6, §7

HT29 cells = test: as above; assay type: cell-based, human; details: 12 h after drug; for Cell Cycle Distribution, G1 / Cell Cycle Distribution, G2 + M / Cell Cycle Distribution, S / Cell Cycle Distribution, sub G / Checkpoint remark: 18 h after 6Gy; for Checkpoint abrogation: HT29, 6 Gy
Procedure: as §4, §5, §6, §7

## O=C1OC(=O)C2C3C=CC(O3)C12 (centres unmarked) [MK-2]
L1210 cells
  IC50: 185 ± 51 µM
Nine cancer cell lines; nine cell lines, read-out: IC50 range across all cell lines tested
  IC50: 157 to 248 µM
HCT116 cells; HCT116, 5 μM
  Cell Cycle Distribution, G1: 30.8 percentage of total
  Cell Cycle Distribution, G2 + M: 57.2 percentage of total
  Cell Cycle Distribution, S: 7.9 percentage of total
  Cell Cycle Distribution, sub G: 3.7 percentage of total
HCT116 cells; HCT116, 50 μM
  Cell Cycle Distribution, G1: 32.8 percentage of total
  Cell Cycle Distribution, G2 + M: 57.3 percentage of total
  Cell Cycle Distribution, S: 6.3 percentage of total
  Cell Cycle Distribution, sub G: 3.3 percentage of total
HCT116 cells; HCT116, 100 μM
  Cell Cycle Distribution, G1: 29.9 percentage of total
  Cell Cycle Distribution, G2 + M: 59.6 percentage of total
  Cell Cycle Distribution, S: 7.2 percentage of total
  Cell Cycle Distribution, sub G: 3.1 percentage of total
HCT116 cells; HCT116, 250 μM
  Cell Cycle Distribution, G1: 23.9 percentage of total
  Cell Cycle Distribution, G2 + M: 65.4 percentage of total
  Cell Cycle Distribution, S: 4.3 percentage of total
  Cell Cycle Distribution, sub G: 6.2 percentage of total
HCT116 cells; HCT116, 500 μM
  Cell Cycle Distribution, G1: 15.4 percentage of total
  Cell Cycle Distribution, G2 + M: 73.0 percentage of total
  Cell Cycle Distribution, S: 4.9 percentage of total
  Cell Cycle Distribution, sub G: 6.4 percentage of total
  Checkpoint remark: G1 abrogation
HCT116 cells
  Checkpoint abrogation: abrogated radiation induced G1 arrest
HL60 cells; HL60, 50 μM
  Cell Cycle Distribution, G1: 6.1 percentage of total
  Cell Cycle Distribution, G2 + M: 85.5 percentage of total
  Cell Cycle Distribution, S: 2.8 percentage of total
  Cell Cycle Distribution, sub G: 5.9 percentage of total
HL60 cells; HL60, 100 μM
  Cell Cycle Distribution, G1: 6.1 percentage of total
  Cell Cycle Distribution, G2 + M: 85.4 percentage of total
  Cell Cycle Distribution, S: 3.3 percentage of total
  Cell Cycle Distribution, sub G: 5.5 percentage of total
HL60 cells; HL60, 250 μM
  Cell Cycle Distribution, G1: 5.4 percentage of total
  Cell Cycle Distribution, G2 + M: 83.9 percentage of total
  Cell Cycle Distribution, S: 2.8 percentage of total
  Cell Cycle Distribution, sub G: 8.1 percentage of total
HL60 cells; HL60, 500 μM
  Cell Cycle Distribution, G1: 4.4 percentage of total
  Cell Cycle Distribution, G2 + M: 80.0 percentage of total
  Cell Cycle Distribution, S: 4.1 percentage of total
  Cell Cycle Distribution, sub G: 11.8 percentage of total
  Checkpoint remark: Cell Death
HL60 cells
  Checkpoint abrogation: abrogated radiation induced G1 arrest
HT29 cells; HT29, 5 μM
  Cell Cycle Distribution, G1: 31.8 percentage of total
  Cell Cycle Distribution, G2 + M: 41.3 percentage of total
  Cell Cycle Distribution, S: 8.7 percentage of total
  Cell Cycle Distribution, sub G: 17.3 percentage of total
HT29 cells; HT29, 50 μM
  Cell Cycle Distribution, G1: 35.4 percentage of total
  Cell Cycle Distribution, G2 + M: 44.7 percentage of total
  Cell Cycle Distribution, S: 8.8 percentage of total
  Cell Cycle Distribution, sub G: 10.3 percentage of total
HT29 cells; HT29, 100 μM
  Cell Cycle Distribution, G1: 40.6 percentage of total
  Cell Cycle Distribution, G2 + M: 45.9 percentage of total
  Cell Cycle Distribution, S: 9.0 percentage of total
  Cell Cycle Distribution, sub G: 3.5 percentage of total
HT29 cells; HT29, 250 μM
  Cell Cycle Distribution, G1: 24.9 percentage of total
  Cell Cycle Distribution, G2 + M: 59.4 percentage of total
  Cell Cycle Distribution, S: 12.3 percentage of total
  Cell Cycle Distribution, sub G: 2.7 percentage of total
HT29 cells; HT29, 500 μM
  Cell Cycle Distribution, G1: 24.1 percentage of total
  Cell Cycle Distribution, G2 + M: 45.2 percentage of total
  Cell Cycle Distribution, S: 20.4 percentage of total
  Cell Cycle Distribution, sub G: 8.8 percentage of total
  Checkpoint remark: G1 abrogation
HT29 cells
  Checkpoint abrogation: abrogated radiation induced G1 arrest

## O=C1OC(O)C2C3CCC(O3)C12 (centres unmarked) [MK-4]
L1210 cells
  IC50: 680 ± 97 µM
Nine cancer cell lines; colon lines, read-out: IC50 range in human colon cancer cell lines
  IC50: 14 to 88 µM
Nine cancer cell lines; leukaemia lines, read-out: IC50 range in leukaemia cells
  IC50: 393 to 680 µM
Nine cancer cell lines; ovarian lines, read-out: IC50 range in ovarian cells
  IC50: 275 to 333 µM
HCT116 cells; HCT116, 50 μM
  Cell Cycle Distribution, G1: 26.7 percentage of total
  Cell Cycle Distribution, G2 + M: 61.3 percentage of total
  Cell Cycle Distribution, S: 5.8 percentage of total
  Cell Cycle Distribution, sub G: 6.3 percentage of total
HCT116 cells; HCT116, 100 μM
  Cell Cycle Distribution, G1: 18.4 percentage of total
  Cell Cycle Distribution, G2 + M: 69.3 percentage of total
  Cell Cycle Distribution, S: 9.7 percentage of total
  Cell Cycle Distribution, sub G: 3.3 percentage of total
HCT116 cells; HCT116, 250 μM
  Cell Cycle Distribution, G1: 16.3 percentage of total
  Cell Cycle Distribution, G2 + M: 67.8 percentage of total
  Cell Cycle Distribution, S: 8.2 percentage of total
  Cell Cycle Distribution, sub G: 8.2 percentage of total
HCT116 cells; HCT116, 500 μM
  Cell Cycle Distribution, G1: 13.1 percentage of total
  Cell Cycle Distribution, G2 + M: 61.9 percentage of total
  Cell Cycle Distribution, S: 10.6 percentage of total
  Cell Cycle Distribution, sub G: 14.9 percentage of total
  Checkpoint remark: G1 abrogation
HCT116 cells
  Checkpoint abrogation: abrogated G1 arrest
HL60 cells; HL60, 50 μM
  Cell Cycle Distribution, G1: 6.2 percentage of total
  Cell Cycle Distribution, G2 + M: 82.3 percentage of total
  Cell Cycle Distribution, S: 2.8 percentage of total
  Cell Cycle Distribution, sub G: 8.9 percentage of total
HL60 cells; HL60, 100 μM
  Cell Cycle Distribution, G1: 6.2 percentage of total
  Cell Cycle Distribution, G2 + M: 80.8 percentage of total
  Cell Cycle Distribution, S: 3.4 percentage of total
  Cell Cycle Distribution, sub G: 9.8 percentage of total
HL60 cells; HL60, 250 μM
  Cell Cycle Distribution, G1: 5.8 percentage of total
  Cell Cycle Distribution, G2 + M: 82.2 percentage of total
  Cell Cycle Distribution, S: 3.1 percentage of total
  Cell Cycle Distribution, sub G: 9.3 percentage of total
HL60 cells; HL60, 500 μM
  Cell Cycle Distribution, G1: 5.2 percentage of total
  Cell Cycle Distribution, G2 + M: 78.2 percentage of total
  Cell Cycle Distribution, S: 5.4 percentage of total
  Cell Cycle Distribution, sub G: 11.6 percentage of total
  Checkpoint remark: Cell Death
HL60 cells
  Checkpoint abrogation: abrogated G1 arrest
HT29 cells; HT29, 50 μM
  Cell Cycle Distribution, G1: 28.9 percentage of total
  Cell Cycle Distribution, G2 + M: 48.4 percentage of total
  Cell Cycle Distribution, S: 16.4 percentage of total
  Cell Cycle Distribution, sub G: 6.8 percentage of total
HT29 cells; HT29, 100 μM
  Cell Cycle Distribution, G1: 33.3 percentage of total
  Cell Cycle Distribution, G2 + M: 43.3 percentage of total
  Cell Cycle Distribution, S: 17.2 percentage of total
  Cell Cycle Distribution, sub G: 6.3 percentage of total
HT29 cells; HT29, 250 μM
  Cell Cycle Distribution, G1: 35.2 percentage of total
  Cell Cycle Distribution, G2 + M: 36.5 percentage of total
  Cell Cycle Distribution, S: 17.3 percentage of total
  Cell Cycle Distribution, sub G: 10.3 percentage of total
HT29 cells; HT29, 500 μM
  Cell Cycle Distribution, G1: 39.4 percentage of total
  Cell Cycle Distribution, G2 + M: 37.7 percentage of total
  Cell Cycle Distribution, S: 19.2 percentage of total
  Cell Cycle Distribution, sub G: 3.9 percentage of total
  Checkpoint remark: G2 abrogation
HT29 cells
  Checkpoint abrogation: abrogation of the G2 checkpoint
